Test results taken from PubChem BioAssay AID248 (DTP/NCI, 2004).
Several values for one entry are separate records, joined by “and”; a condition that tells them apart may be missing. Identical values can stand only once. Inconclusive results and toxic doses are left out.

Tested on: L1210 leukemia ip in BDF1 mice, survival T/C
Assay: NCI In Vivo Anticancer Drug Screen. Data for tumor model L1210 Leukemia (intraperitoneal) in B6D2F1 (BDF1) mice
Details: endpoint: median survival time, higher = longer survival
Procedure, shortened: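 Mice bearing the transplanted tumor received compound or vehicle. Survival of the treated group was divided by that of the vehicle-treated control group to give the ratio.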

c1cc2n(n1)CCN2 was tested. Which T/C (dose: 30.0 mg/kg/injection, schedule: Q03HX024 (ip), vehicle: saline) did it give?
Its T/C is 103 % of control.

What about the T/C (dose: 40.0 mg/kg/injection, schedule: Q01DX009 (ip), vehicle: saline) of the same compound?
The T/C was 104 % of control.

What about the T/C (dose: 50.0 mg/kg/injection, schedule: Q01DX009 (oral), vehicle: saline) of the same compound?
Its T/C is 110 % of control.

And the T/C (dose: 50.0 mg/kg/injection, schedule: Q01DX009 (sc), vehicle: saline)?
The T/C was 100 % of control.

And the T/C (dose: 60.0 mg/kg/injection, schedule: Q01DX009 (ip), vehicle: saline)?
The T/C was 111 % of control.

What about the T/C (dose: 88.0 mg/kg/injection, schedule: Q01DX009 (ip), vehicle: saline) of the same compound?
The T/C was 113 % of control.

What about the T/C (dose: 100.0 mg/kg/injection, schedule: Q01DX005 (ip), vehicle: saline) of the same compound?
The T/C was 111 % of control.

What about the T/C (dose: 100.0 mg/kg/injection, schedule: Q01DX009 (ip), vehicle: saline) of the same compound?
The T/C was 113 % of control.

What about the T/C (dose: 100.0 mg/kg/injection, schedule: Q01DX009 (oral), vehicle: saline) of the same compound?
The T/C was 115 % of control.

What about the T/C (dose: 100.0 mg/kg/injection, schedule: Q01DX009 (sc), vehicle: saline) of the same compound?
The T/C was 120 % of control.

What about the T/C (dose: 100.0 mg/kg/injection, schedule: Q04DX003 (ip), vehicle: Klucel (hydroxypropylcellulose) (HPC)) of the same compound?
The T/C was 105 % of control.

And the T/C (dose: 100.0 mg/kg/injection, schedule: Q04DX003 (ip), vehicle: saline)?
Its T/C is 116 % of control.

And the T/C (dose: 100.0 mg/kg/injection, schedule: Q08DX002 (ip), vehicle: saline)?
The T/C was 100 % of control.

And the T/C (dose: 108.0 mg/kg/injection, schedule: Q04DX003 (ip), vehicle: saline)?
The T/C was 100 % of control.

And the T/C (dose: 133.0 mg/kg/injection, schedule: Q01DX009 (ip), vehicle: saline)?
The T/C was 121 % of control.

And the T/C (dose: 133.0 mg/kg/injection, schedule: Q04DX003 (ip), vehicle: saline)?
Its T/C is 119 % of control.

What about the T/C (dose: 133.0 mg/kg/injection, schedule: Q08DX002 (ip), vehicle: saline) of the same compound?
The T/C was 119 % of control.

What about the T/C (dose: 180.0 mg/kg/injection, schedule: Q04DX003 (ip), vehicle: saline) of the same compound?
Its T/C is 100 % of control.

And the T/C (dose: 200.0 mg/kg/injection, schedule: Q01DX001 (ip), vehicle: saline)?
Its T/C is 103 % of control.

And the T/C (dose: 200.0 mg/kg/injection, schedule: Q01DX009 (ip), vehicle: saline)?
Its T/C is 106 % of control.

What about the T/C (dose: 200.0 mg/kg/injection, schedule: Q01DX009 (oral), vehicle: saline) of the same compound?
Its T/C is 86 % of control.

And the T/C (dose: 200.0 mg/kg/injection, schedule: Q01DX009 (sc), vehicle: saline)?
Its T/C is 150 % of control.

What about the T/C (dose: 200.0 mg/kg/injection, schedule: Q04DX003 (oral), vehicle: saline) of the same compound?
The T/C was 119 % of control and 120 % of control.

What about the T/C (dose: 200.0 mg/kg/injection, schedule: Q08DX002 (oral), vehicle: saline) of the same compound?
Its T/C is 111 % of control and 120 % of control.

What about the T/C (dose: 300.0 mg/kg/injection, schedule: Q01DX001 (ip), vehicle: saline) of the same compound?
The T/C was 104 % of control.

And the T/C (dose: 300.0 mg/kg/injection, schedule: Q04DX003 (ip), vehicle: saline)?
Its T/C is 110 % of control.

And the T/C (dose: 400.0 mg/kg/injection, schedule: Q04DX003 (ip), vehicle: Klucel (hydroxypropylcellulose) (HPC))?
The T/C was 150 % of control.

And the T/C (dose: 400.0 mg/kg/injection, schedule: Q04DX003 (ip), vehicle: saline)?
The T/C was 166 % of control.

And the T/C (dose: 400.0 mg/kg/injection, schedule: Q04DX003 (sc), vehicle: saline)?
The T/C was 195 % of control.

What about the T/C (dose: 400.0 mg/kg/injection, schedule: Q08DX002 (ip), vehicle: saline) of the same compound?
The T/C was 150 % of control.

What about the T/C (dose: 444.0 mg/kg/injection, schedule: Q01DX001 (ip), vehicle: saline) of the same compound?
The T/C was 114 % of control.

What about the T/C (dose: 600.0 mg/kg/injection, schedule: Q04DX003 (ip), vehicle: saline) of the same compound?
The T/C was 101 % of control.

What about the T/C (dose: 600.0 mg/kg/injection, schedule: Q04DX003 (oral), vehicle: saline) of the same compound?
Its T/C is 90 % of control.

And the T/C (dose: 600.0 mg/kg/injection, schedule: Q04DX003 (sc), vehicle: saline)?
Its T/C is 150 % of control.

And the T/C (dose: 600.0 mg/kg/injection, schedule: Q08DX002 (oral), vehicle: saline)?
Its T/C is 165 % of control.

And the T/C (dose: 600.0 mg/kg/injection, schedule: Q08DX002 (sc), vehicle: saline)?
The T/C was 180 % of control.

What about the T/C (dose: 660.0 mg/kg/injection, schedule: Q08DX002 (ip), vehicle: saline) of the same compound?
Its T/C is 161 % of control.

What about the T/C (dose: 800.0 mg/kg/injection, schedule: Q04DX003 (ip), vehicle: saline) of the same compound?
The T/C was 106 % of control and 70 % of control.
